The nature of data set [1]: Inhibition of URAT1 F365Y mutant (unknown origin)-mediated 14C-uric acid uptake expressed in HEK293 cells using 14C-uric acid as substrate preincubated for 30 mins followed by substrate addition and measured after 15 mins by liquid scintillation counting analysis. The settings on record: Homo sapiens. The format is cell-based.
A short description of data set [2]: Inhibition of URAT1 R477K mutant (unknown origin)-mediated 14C-uric acid uptake expressed in HEK293 cells using 14C-uric acid as substrate preincubated for 30 mins followed by substrate addition and measured after 15 mins by liquid scintillation counting analysis. The format is cell-based. The note with it: Homo sapiens.
Data set [3] is described as follows: Inhibition of URAT1 F241Y mutant (unknown origin)-mediated 14C-uric acid uptake expressed in HEK293 cells using 14C-uric acid as substrate preincubated for 30 mins followed by substrate addition and measured after 15 mins by liquid scintillation counting analysis. The format is cell-based. The note with it: Homo sapiens.
Data set [4] deals with T1, Solute carrier family 2, facilitated glucose transporter member 9 (Homo sapiens) (UniProt Q9NRM0).
T1 sequence (whole entry): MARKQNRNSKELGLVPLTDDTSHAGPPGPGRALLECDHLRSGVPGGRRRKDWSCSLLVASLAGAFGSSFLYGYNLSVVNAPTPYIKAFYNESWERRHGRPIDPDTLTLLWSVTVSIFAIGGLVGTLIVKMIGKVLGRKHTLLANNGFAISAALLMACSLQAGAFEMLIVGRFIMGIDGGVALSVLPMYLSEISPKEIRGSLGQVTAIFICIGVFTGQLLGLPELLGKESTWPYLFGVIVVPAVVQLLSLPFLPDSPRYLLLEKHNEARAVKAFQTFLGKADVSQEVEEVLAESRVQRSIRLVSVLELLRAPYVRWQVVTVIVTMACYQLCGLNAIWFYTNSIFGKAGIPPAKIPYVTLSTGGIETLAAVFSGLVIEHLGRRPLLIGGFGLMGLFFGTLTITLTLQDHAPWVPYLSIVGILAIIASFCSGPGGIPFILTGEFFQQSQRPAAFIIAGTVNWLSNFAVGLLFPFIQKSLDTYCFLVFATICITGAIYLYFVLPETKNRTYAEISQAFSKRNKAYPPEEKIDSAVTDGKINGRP
The data set can be described thus: Inhibition of GLUT9 (unknown origin) expressed in HEK293T cells assessed as inhibition of uric acid-induced current at 10 uM by whole cell patch clamp technique. The data set is classed as cell-based. (In patch-clamp work, channel activity is measured electrically.)

Data set [5] can be described thus: Half life in Sprague-Dawley rat at 5 mg/kg, po measured upto 36 hrs by LC-MS/MS analysis. The data set is classed as ADME, organism-based. The note with it: in vivo.
For data set [6], the target named is T2, Broad substrate specificity ATP-binding cassette transporter ABCG2 (Homo sapiens, UniProt Q9UNQ0).
T2 sequence (Q9UNQ0 whole entry): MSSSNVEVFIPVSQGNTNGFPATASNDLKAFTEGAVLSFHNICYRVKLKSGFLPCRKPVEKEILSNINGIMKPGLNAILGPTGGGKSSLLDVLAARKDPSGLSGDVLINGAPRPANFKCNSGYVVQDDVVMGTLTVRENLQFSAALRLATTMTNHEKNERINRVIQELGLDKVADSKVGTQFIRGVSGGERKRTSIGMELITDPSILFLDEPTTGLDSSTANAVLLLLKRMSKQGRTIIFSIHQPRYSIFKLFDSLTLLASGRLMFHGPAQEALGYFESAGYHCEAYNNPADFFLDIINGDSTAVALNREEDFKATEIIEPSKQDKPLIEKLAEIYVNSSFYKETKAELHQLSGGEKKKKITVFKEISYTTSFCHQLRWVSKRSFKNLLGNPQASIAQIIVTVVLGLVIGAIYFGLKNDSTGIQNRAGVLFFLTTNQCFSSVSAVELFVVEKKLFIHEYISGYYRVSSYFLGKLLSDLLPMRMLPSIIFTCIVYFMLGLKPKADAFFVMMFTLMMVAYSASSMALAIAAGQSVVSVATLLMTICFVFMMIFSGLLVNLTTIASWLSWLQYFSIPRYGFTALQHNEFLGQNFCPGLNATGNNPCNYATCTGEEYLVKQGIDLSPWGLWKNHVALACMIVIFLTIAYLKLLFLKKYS
Nature of the data set: Inhibition of ABCG2 (unknown origin) expressed in HEK293 cells membrane vesicles assessed as inhibition of ATP-induced 14C-uric acid uptake preincubated for 15 mins followed by incubation with ATP and substrate for 5 mins by liquid scintillation counting analysis. The format is toxicity, cell membranes, Membrane vesicle.

A short description of data set [7]: Inhibition of URAT1 F358Y mutant (unknown origin)-mediated 14C-uric acid uptake expressed in HEK293 cells using 14C-uric acid as substrate preincubated for 30 mins followed by substrate addition and measured after 15 mins by liquid scintillation counting analysis. The format is cell-based. The note with it: Homo sapiens.
Data set [8] in a line: Tmax in Sprague-Dawley rat at 5 mg/kg, iv measured upto 36 hrs by LC-MS/MS analysis. The format is ADME, organism-based. The settings on record: in vivo.
The nature of data set [9]: Half life in Sprague-Dawley rat at 5 mg/kg, iv measured upto 36 hrs by LC-MS/MS analysis. The format is ADME, organism-based. The note with it: in vivo.
Data set [10] is described as follows: Cytotoxicity against human HK-2 cells assessed as reduction in cell viability incubated for 24 hrs by MTT assay. The data set is classed as toxicity, cell-based. For orientation: Tetrazolium assays rely on reduction of a dye to a coloured formazan, in cell work by metabolically active cells.

These results are taken from ChEMBL document CHEMBL5154691, “Discovery of novel verinurad analogs as dual inhibitors of URAT1 and GLUT9 with improved Druggability for the treatment of hyperuricemia” (Eur J Med Chem, 2022).

Consider `N#Cc1ccc(Nc2cnccc2SCc2ccccc2C(=O)[O-])c2ccccc12.[Na+]`, for which the IC50 (usually the concentration needed to halve the response being measured) came out at 1570 nM in [1]; 2170 nM in data set [2]; 310 nM in [3]; 26700 nM in [6]; 780 nM in [7]. For the same compound, the inhibition (usually the relative decrease from the control value, in per cent) in data set [4] came out at 51%. Further, the values for the half-life in [5] and in [9] were 5.14 h and 4.19 h, respectively. Also, the Tmax (as a rule, the time from dosing to the highest level) in data set [8] amounted to 0.17 h. Further, the IC50 at 24 h in data set [10] came out at 208000 nM.
